pIC50: −log10 of the molar value.
Test system: HCT-116 colorectal cancer cells
Test: Cell viability (alamarBlue) assay in HCT-116 cells
Format: cell-based, Human
Settings: 72 hr exposure, four parameter logistic fit
Experimental: Human HCT-116 colorectal cancer cells (CRC) and MDA-MB-231 breast cancer cells were purchased from the American Type Culture Collection (Manassas, Va.) and grown following ATCC recommendations, in the presence of fetal bovine serum (10%), 2 mM L-glutamine and antibiotics (100 IU/ml penicillin and 100 μg/ml streptomycin, Sigma). Cells were maintained at 37° C., 5% CO2 atmosphere.
Cell viability was measured using the alamarBlue assay (Invitrogen). In brief, cells were plated in 96-well plates in triplicate at 5K cells per well and incubated at 37° C., 5% CO2 atmosphere for 24 hr prior to the addition of drug or vehicle (0.3% DMSO) to the culture medium. After 72 hr, 10 μl/well alamarBlue was added to the wells and incubated for an additional 3 hr at 37° C., 5% CO2 atmosphere. Fluorescence ([…]/590EM nM) was measured with a SpectraMax microplate reader (Molecular Devices) and the resulting data were used to calculate cell viability, normalized to vehicle control. […]
Combinations between ganetespib and cisplatin were then performed in HCT-116 cells concurrently based on the IC50 for each agent in matrix format with 54 combination pairs for each drug. The combined drugs, as well as each drug alone, were incubated with the cells for 3 days and the surviving fraction of cells relative to control was determined using the alamarBlue assay.

Structure (SMILES)	pIC50	pIC50 (Homo sapiens)
N.N.[Cl][Pt][Cl] [cisplatin]	~5.24	
CC(C)c1cc(-c2nnc(O)n2-c2ccc3c(ccn3C)c2)c(O)cc1O [ganetespib, 3-(2,4-DIHYDROXY-5- ISOPROPYL-PHENYL)-4-(1- METHYL-INDOL-5-YL)-5- HYDROXY-[1,2,4] TRIAZOLE]		~7.49
